How the values were obtained:
CLB-BAR cells = assay: Xenograft neuroblastoma model in vivo; set-up: species or system BalbC/NUDE mice
Text: In the first investigation mice (n=3) were employed and in the second investigation mice (n=5) were employed. […] In the second investigation where 5 mice were employed a subset of mice (n=2) were released from treatment after 14 days, for a further 8 days (blue curve). […] C. […] Data are means +/− SE from 8 tumours, p values indicated; Student's t test.
Female Balbc/nude mice (Charles River, Germany) at 5-6 weeks age were maintained in a pathogen-free environment. For xenografts, 2.5 million CLB-BAR cells (MYCN amplified, ALK (Δ4-11) amplified) were injected subcutaneously. Once tumor volume achieved about 50mm^3, drug was given at 50 mg/kg body weight, by oral gavage, once daily, continuously for 14 days. Mice were grouped by tumor volume randomly. Tumor volume was calculated with the following equation: V=0.5236×L×W^2 (V=volume, L=longest, W=width).
Mice were sacrificed and tumors were collected. Tumors were fixed in 4% PFA, followed by 15% and 30% sucrose in PBS. Tumors were embedded in OCT compound (VWR chemicals) and frozen at −80°C. […] Secondary antibodies (Cell Signaling Tech., Danver, MA) were applied for 2 hours at room temperature. Impact DAB (Vector Laboratories, SK 4105) was employed for staining followed by hematoxylin cross-staining (Sigma-Aldrich). After mounting sections, images were taken using an Axio zoom V16 stereo microscope (Zeiss).

[1] = test system: CLB-PE (ALK-WT, non-ALK addicted) neuroblastoma cells; assay: Proliferation assay (resazurin cell viability), CLB-PE; type: cell-based, human; settings: 72 hours
Description: (§1) Cells were seeded at 15,000 per well with serial dilutions of the indicated inhibitors. After 72 hours cell viability was assessed by resazurin (Sigma, Sweden). IC50 values were calculated with GraphPad Prism 6.0 by fitting data to a log (inhibitor concentration) vs. normalized response (variable slope) equation. Each experiment was performed in duplicate and repeated at least three times.

[2] = test system: CLB-GE (ALK-F1174V, ALK addicted) neuroblastoma cells; assay: Proliferation assay (resazurin cell viability), CLB-GE; type: cell-based; settings: Homo sapiens, 72 hours, read-out: IC50 (cell growth)
Description: as §1

[3] = test system: CLB-BAR (ALK-Δ4-11, ALK addicted) neuroblastoma cells; assay: Proliferation assay (resazurin cell viability), CLB-BAR; type: cell-based; settings: Homo sapiens, 72 hours, read-out: IC50 (cell growth)
Description: as §1

[4] = inferred from CNS responses in NSCLC patients; cited from earlier work
ALK mutants = assay: Neurite outgrowth assay in PC12 cells, ALK mutants; type: cell-based, human
Description: PC12 cells (2 x10^6) co-transfected, in 100 μl of Ingenio electroporation solution (Minus Bio LCC), with pEGFPN1 (Clonetech) (0.5 ng) and ALK-mutant (0.75 ng) or ALK-wt (0.75 ng) as indicated were seeded sparingly into 24-well plates. ALK-wild type was stimulated with 1 μg/ml mAb31. After 48 hours post transfection, the fraction of GFP-positive and neurite carrying cells versus GFP-positive cells were analyzed under a Zeiss Axiovert 40 CFL microscope. A cell was considered as neurite-carrying if it had neurite(s) that reached at least twice the length of the diameter of a normal cell body. The experiments were performed at least three times in triplicates.

ALK-positive NSCLC = settings: cited from earlier work
[5] = test system: IMR32 (ALK-WT, non-ALK addicted) neuroblastoma cells; assay: Proliferation assay (resazurin cell viability), IMR32; type: cell-based, human; settings: IMR32, 72 hours
Description: as §1

[6] = test system: neuroblastoma tumor growth; settings: orthotopic xenograft tumor growth and TH-ALKF1174L/TH-MYCN mouse model; cited from earlier work
[7] = immunoblotting, vs control group

COc1cc(N2CCC(N3CCN(C)CC3)CC2)ccc1Nc1ncc(Cl)c(Nc2ccccc2P(C)(C)=O)n1 [brigatinib]
tumor weight (CLB-BAR cells; 50 mg/kg once daily oral gavage, 14 days, vs controls, p=0.01): significantly reduced | tumor volume / tumor growth (CLB-BAR cells; 50 mg/kg once daily oral gavage, 14 days, vs vehicle, p=0.0004): considerably inhibits proliferation of tumor growth | side effect in vivo (CLB-BAR cells; 50 mg/kg once daily, 14 days): no obvious side effect | body weight of mice (CLB-BAR cells; 50 mg/kg once daily, 14 days, p=0.9): did not show any variation | MYCN protein levels in tumor material (CLB-BAR cells; [7]): decreased protein levels | phospho-ALK levels in tumor material (CLB-BAR cells; [7]): decreased phospho-ALK levels | phosphorylated ERK5 and AKT in tumor material (CLB-BAR cells; [7]): reduced phosphorylation | total ALK protein levels in tumor material (CLB-BAR cells; [7]): No obvious change | tumor volume/growth after discontinuation of treatment (CLB-BAR cells; treatment discontinued after 14 days, for 8 days, n=2): increase in tumor volume/growth | Ki-67 proliferation marker in excised tumor (CLB-BAR cells; vs controls, p=0.0005): significantly reduced proliferation | inhibition of cell growth [1]: Neither brigatinib nor crizotinib was able to inhibit growth | IC50 [2]: 100 ± 17.5 nM | IC50 [3]: 75.3 ± 8.89 nM | blood-brain barrier penetration [4]: able to penetrate the blood-brain barrier | block of neurite outgrowth compared with crizotinib (ALK mutants; ALK-G1269A, ALK-R1275 and ALK-R1192P, brigatinib 15 and 30 nM vs crizotinib 250 nM): more efficiently than crizotinib | neurite outgrowth of all tested ALK mutants (ALK mutants; PC12 cells, 48 hours): could abrogate neurite outgrowth | patients with non-measureable CNS lesions with disappearance of all lesions (ALK-positive NSCLC; 8/26 patients): 31% | patients responding to treatment (ALK-positive NSCLC; crizotinib refractory ALK-positive NSCLC patients): about 72% | response in patients with baseline CNS metastases (ALK-positive NSCLC; radiological review, 6/12 patients): 50% | inhibition of cell growth [5]: Neither brigatinib nor crizotinib was able to inhibit growth

C[C@@H](Oc1cc(-c2cnn(C3CCNCC3)c2)cnc1N)c1c(Cl)ccc(F)c1Cl [crizotinib]
efficacy as a single agent treatment [6]: limited efficacy
